Results on 43 substances are retold here after the OligoGym collection.

Values joined by “and” are separate entries in the source; they are usually repeats but may differ in a detail not shown here. Identical values can stand only once. After the bases stand the sugars from the 5' end (letter, count) and the backbone: PS all phosphorothioate, else s phosphorothioate and o phosphodiester by linkage. HELM strings list units from the 5' end as sugar, base in round brackets, then linkage (d deoxyribose, r ribose, m 2'-O-methyl, p phosphodiester). Methylation of C is not given here. [moe] = 2'-O-(2-methoxyethyl) (MOE); [cEt] = constrained ethyl (cEt); [sp] = phosphorothioate linkage; e = 2'-O-(2-methoxyethyl) (MOE); k = constrained ethyl (cEt); d = 2'-deoxy (DNA)

The target of one data set is HBV. The note with it: ASO.
The target of another data set is APOL1. The note with it: ASO.

On to “RNA1{[moe](C)[sp].[moe](G)[sp].[moe](C)[sp].[moe](A)[sp].d(G)[sp].d(T)[sp].d(A)[sp].d(T)[sp].d(G)[sp].d(G)[sp].d(A)[sp].d(T)[sp].d(C)[sp].[moe](G)[sp].[moe](G)[sp].[moe](C)}$$$$V2.0”, for which the target mRNA inhibition with HBV (HepG2, 0.07 µM) was 80% and 68%.
On the same count and under the same terms, for “RNA1{[moe](G)[sp].[moe](A)[sp].[moe](A)[sp].[moe](C)[sp].[moe](T)[sp].d(G)[sp].d(G)[sp].d(A)[sp].d(G)[sp].d(C)[sp].d(C)[sp].d(A)[sp].d(C)[sp].d(C)[sp].[moe](A)[sp].[moe](G)}$$$$V2.0” the value was 46% and 39%.
Same read-out and setting: to “RNA1{[moe](A)[sp].[moe](C)[sp].[moe](G)[sp].d(G)[sp].d(G)[sp].d(C)[sp].d(A)[sp].d(A)[sp].d(C)[sp].d(A)[sp].d(T)[sp].d(A)[sp].d(C)[sp].[cEt](C)[sp].[cEt](T)[sp].[cEt](T)}$$$$V2.0” belongs 43% and 40%; to “RNA1{[moe](C)[sp].[moe](A)[sp].[moe](A)[sp].d(T)[sp].d(T)[sp].d(T)[sp].d(A)[sp].d(T)[sp].d(G)[sp].d(C)[sp].d(C)[sp].d(T)[sp].d(A)[sp].[cEt](C)[sp].[cEt](A)[sp].[cEt](G)}$$$$V2.0”, 30% and 20%.
Still for that read-out and setting: for “RNA1{[moe](G)[sp].[moe](G)[sp].d(C)[sp].d(A)[sp].d(T)[sp].d(A)[sp].d(G)[sp].d(C)[sp].d(A)[sp].d(G)[sp].d(C)[sp].[moe](A)[sp].[moe](G)[sp].[moe](G)[sp].[moe](A)[sp].[moe](T)}$$$$V2.0” the value was 52% and 40%; for “RNA1{[moe](A)[sp].[moe](A)[sp].[moe](G)[sp].d(C)[sp].d(G)[sp].d(A)[sp].d(A)[sp].d(G)[sp].d(T)[sp].d(G)[sp].d(C)[sp].d(A)[sp].[moe](C)[sp].[moe](A)[sp].[moe](C)[sp].[moe](G)[sp].[moe](G)}$$$$V2.0”, 81% and 73%.
For the substance “RNA1{[moe](A)[sp].[moe](A)[sp].[moe](G)[sp].[moe](C)[sp].[moe](G)[sp].d(A)[sp].d(A)[sp].d(G)[sp].d(T)[sp].d(G)[sp].d(C)[sp].d(A)[sp].d(C)[sp].d(A)[sp].[moe](C)[sp].[moe](G)[sp].[moe](G)}$$$$V2.0”, the target mRNA inhibition was 8% in the data set with HBV (HepG2, 0.0092593 µM); 26% in the data set with HBV (HepG2, 0.0277778 µM); 77% and 76% with HBV (HepG2, 0.07 µM); 62% with HBV (HepG2, 0.0833333 µM); 85% with HBV (HepG2, 0.25 µM).
Consider “RNA1{[moe](A)[sp].[moe](T)[sp].[moe](G)[sp].[moe](A)[sp].[moe](G)[sp].[moe](G)[sp].d(C)[sp].d(A)[sp].d(T)[sp].d(A)[sp].d(G)[sp].d(C)[sp].d(A)[sp].d(G)[sp].d(C)[sp].[moe](A)[sp].[moe](G)}$$$$V2.0”, for which the target mRNA inhibition in the data set with HBV (HepG2, 0.07 µM) is 55% and 51%.
The same measure, in the same setting: for “RNA1{[moe](A)[sp].[moe](A)[sp].[moe](G)[sp].[moe](A)[sp].[moe](T)[sp].[moe](G)[sp].d(A)[sp].d(G)[sp].d(G)[sp].d(C)[sp].d(A)[sp].d(T)[sp].d(A)[sp].d(G)[sp].d(C)[sp].[moe](A)[sp].[moe](G)}$$$$V2.0” the value was 65% and 41%.
On to “RNA1{[moe](T)[sp].[moe](G)[sp].[moe](A)[sp].[cEt](G)[sp].[cEt](G)[sp].d(C)[sp].d(A)[sp].d(T)[sp].d(A)[sp].d(G)[sp].d(C)[sp].d(A)[sp].[cEt](G)[sp].[cEt](C)[sp].[moe](A)[sp].[moe](G)[sp].[moe](G)}$$$$V2.0”, for which the target mRNA inhibition amounted to 23% with HBV (HepG2, 0.009375 µM); 4% in the data set with HBV (HepG2, 0.01875 µM); 29% with HBV (HepG2, 0.0375 µM); 31% with HBV (HepG2, 0.075 µM); 36% with HBV (HepG2, 0.15 µM); 56% with HBV (HepG2, 0.3 µM).
For “RNA1{[moe](A)[sp].[cEt](G)[sp].d(A)[sp].d(G)[sp].d(G)[sp].d(T)[sp].d(G)[sp].d(A)[sp].d(A)[sp].d(G)[sp].d(C)[sp].d(G)[sp].[cEt](A)[sp].[moe](A)[sp].[cEt](G)[sp].[moe](T)}$$$$V2.0”, the target mRNA inhibition with HBV (HepG2, 0.07 µM) was 63% and 76%.
Same read-out and setting: to “RNA1{[moe](G)[sp].[moe](G)[sp].[moe](T)[sp].[moe](G)[sp].d(A)[sp].d(A)[sp].d(G)[sp].d(C)[sp].d(G)[sp].d(A)[sp].d(A)[sp].d(G)[sp].d(T)[sp].[moe](G)[sp].[moe](C)[sp].[moe](A)}$$$$V2.0” belongs 55% and 59%; to “RNA1{[moe](A)[sp].[cEt](G)[sp].d(G)[sp].d(C)[sp].d(A)[sp].d(G)[sp].d(A)[sp].d(G)[sp].d(G)[sp].d(T)[sp].d(G)[sp].d(A)[sp].[cEt](A)[sp].[moe](A)[sp].[cEt](A)[sp].[moe](A)}$$$$V2.0”, 39% and 37%.
For the substance “TGGTTCAAAAGCAGCA (sugars k2 d4 e3 k2 d5, PS)”, the target mRNA inhibition with APOL1 (A431, 0.0156 µM) came out at 41%; in the data set with APOL1 (A431, 0.0625 µM), 68%; in the data set with APOL1 (A431, 0.25 µM), 85%; with APOL1 (A431, 1 µM), 91%; with APOL1 (A431, 2 µM), 93%.
For “GAGTATTGTTTTTGTG (sugars kkddddkdkdkddddd, PS)”, in that order: 17%, 34%, 70%, 88% and 92%.
With “CATTCAGAATTTCCAC (sugars kkkddddkekeddddd, PS)”, the target mRNA inhibition with APOL1 (A431, 2 µM) amounted to 86%.
The substance “GGAATTATGGAATTGC (sugars kkddddkekekddddd, PS)” had a target mRNA inhibition with APOL1 (A431, 2 µM) of 82%.
In the data set with APOL1 (A431, 2 µM), “AACACATCATTGGGTT (sugars kkkddddkekeddddd, PS)” gave a target mRNA inhibition of 21%.
Regarding “GTATTGCCAGCTAAGG (sugars kdddddkekekddddd, PS)”, the target mRNA inhibition was determined as 29% with APOL1 (A431, 0.0156 µM); 50% with APOL1 (A431, 0.0625 µM); 70% in the data set with APOL1 (A431, 0.25 µM); 87% with APOL1 (A431, 1 µM); 93% in the data set with APOL1 (A431, 2 µM).
In turn, “CGTCAATATATTCTTT (sugars kdddddkekekddddd, PS)” yielded a target mRNA inhibition with APOL1 (A431, 2 µM) of 90%.
On the same count and under the same terms, to “GTTCAAAAGCAGCATT (sugars kddddkekekeddddd, PS)” belongs 33%.
For the substance TGGTCACAGTTCTTGG (sugars k4 d9 k3, PS), the target mRNA inhibition with APOL1 (A431, 0.0625 µM) turned out to be 80%; with APOL1 (A431, 0.25 µM) it was 90%; in the data set with APOL1 (A431, 1 µM), 95%.
On to “GCTAATTTTCTGACTG (sugars kkddddkekekkdddd, PS)”, for which the target mRNA inhibition with APOL1 (A431, 2 µM) was 71%.
Still for that read-out and setting: for “TCAGATGGGTACTTCT (sugars kkddddkekekkdddd, PS)” the value was 62%.
Consider “GCTAATTTTCTGACTG (sugars kkkddddkdkdkdddd, PS)”, for which the target mRNA inhibition with APOL1 (A431, 0.0156 µM) stood at 40%; with APOL1 (A431, 0.04 µM), 34%; with APOL1 (A431, 0.0625 µM), 66%; with APOL1 (A431, 0.25 µM), 85%; with APOL1 (A431, 1 µM), 93%; with APOL1 (A431, 2 µM) it was 93%.
“TATCAGATGGGTACTT (sugars kkkddddkekeddddd, PS)” gave a target mRNA inhibition with APOL1 (A431, 2 µM) of 37%.
“GTTCAAAAGCAGCATT (sugars k2 d4 e3 k2 d5, PS)” returned a target mRNA inhibition with APOL1 (A431, 2 µM) of 86%.
As to GAGCGATTGTCTTGTT (sugars k4 d9 k3, PS), the target mRNA inhibition is 62% and 83% with APOL1 (A431, 0.0625 µM); 85% and 92% in the data set with APOL1 (A431, 0.25 µM); 92% and 95% with APOL1 (A431, 1 µM).
Take CCGTTCCAGGCCTCAT (sugars k4 d9 k3, PS): the target mRNA inhibition with APOL1 (A431, 0.0625 µM) amounted to 48%; with APOL1 (A431, 0.25 µM), 66%; with APOL1 (A431, 1 µM), 65%.
On to “TAATTCTATTAGAGGG (sugars kkkddddkekekdddd, PS)”, for which, in the data set with APOL1 (A431, 2 µM), the target mRNA inhibition was 41%.
As for “CAGTTTTGTAAGTGCA (sugars kkkddddkdkdkdddd, PS)”, the target mRNA inhibition was 57% and 50% in the data set with APOL1 (A431, 0.04 µM); 92% with APOL1 (A431, 1 µM); 93% with APOL1 (A431, 2 µM).
Turning to AACATTGAAACACCAG (sugars k4 d9 k3, PS), the target mRNA inhibition with APOL1 (A431, 0.0625 µM) is 35%; with APOL1 (A431, 0.25 µM), 71%; with APOL1 (A431, 1 µM) it was 89%.
“GTGTTATATTTGATCC (sugars kkkddddkekekdddd, PS)” came in with a target mRNA inhibition with APOL1 (A431, 2 µM) of 75%.
Same read-out and setting: to “TGTAAGTGCAACCAAT (sugars kkddddkekekkdddd, PS)” belongs 43%.
Turning to “GTTATATTTGATCCTC (sugars k3 d5 k3 d5, PS)”, the target mRNA inhibition with APOL1 (A431, 0.0625 µM) worked out at 86%; with APOL1 (A431, 0.25 µM) it was 93%; in the data set with APOL1 (A431, 1 µM), 99%; with APOL1 (A431, 2 µM) it was 100%.
In the case of “TTATATTTGATCCTCA (sugars k2 d4 e3 k2 d5, PS)”, the target mRNA inhibition with APOL1 (A431, 2 µM) stood at 96%.
On the same count and under the same terms, to “CTAATTTTCTGACTGT (sugars kkddddekekeddddd, PS)” belongs 90%; to “GAATTATGGAATTGCA (sugars k2 d4 e4 k2 d4, PS)”, 95%.
The same measure, in the same setting: for “ACATCATTGGGTTATG (sugars kddddkekekeddddd, PS)” the value was 76%; for “ATCAGATGGGTACTTC (sugars kkkddddkekekdddd, PS)”, 54%.
Turning to “TTTGTAAGTGCAACCA (sugars kdddddkekekddddd, PS)”, the target mRNA inhibition came out at 24% with APOL1 (A431, 0.0156 µM); 58% with APOL1 (A431, 0.0625 µM); 86% with APOL1 (A431, 0.25 µM); 96% with APOL1 (A431, 1 µM); 99% with APOL1 (A431, 2 µM).
As to “TCTATTAGAGGGCTAG (sugars kkddddekekeddddd, PS)”, the target mRNA inhibition in the data set with APOL1 (A431, 2 µM) stood at 67%.
Regarding GGAATTATGGAATTGC (sugars k4 d9 k3, PS), the target mRNA inhibition in the data set with APOL1 (A431, 0.04 µM) came to 55%; with APOL1 (A431, 0.0625 µM), 74%; with APOL1 (A431, 0.25 µM), 93%; with APOL1 (A431, 1 µM) it was 98%.
